# Changes are numbered by the printed parent chain. “And” between values parts separate entries of the source, which are not always exact repeats. Identical values can stand only once.
# What was measured:
# WT ForT [1] = molecular target: T1, WT ForT (Streptomyces kaniharaensis, UniProt A0A5S9CYM0); parameters: method as in PMID 31518483; details: ForT-catalysed coupling to PRPP, two products with a new C-C bond; cited from earlier work
# WT ForT [2] = molecular target: T1, WT ForT; assay: Substrate scope of WT ForT, LC-MS assay; assay type: biochemical; details: MgPRPP
# Procedure: We assayed a series of pyrazoles as ForT substrates in which the extracyclic amine was replaced by hydrogen (PDA), nitro- (NPDA), methyl- (MPDA) and iodo- (IPDA) groups (figure 5a; electronic supplementary material, table S1). […] On the other hand, 4-amino-1H-pyrazole-3-carboxylate (APCA) can be coupled to PRPP by ForT to give two products containing a new C-C bond, albeit in less than 5% overall yield (figure 5b). In order to assess the importance of pyrazole substitution, we incubated 3-amino-1H-pyrazole-4-carboxylate (iso-APCA) (electronic supplementary material, table S2) and MgPRPP in the presence of ForT. […] Thus, the product was one of two possible C-N nucleotides.
# ForT/PRPP complex = molecular target: T2, ForT/PRPP complex (Streptomyces kaniharaensis, UniProt A0A5S9CYM0); assay: Binding of HPDA to the ForT/PRPP complex; details: Li, unpublished
# T2 sequence (A0A5S9CYM0 1-341): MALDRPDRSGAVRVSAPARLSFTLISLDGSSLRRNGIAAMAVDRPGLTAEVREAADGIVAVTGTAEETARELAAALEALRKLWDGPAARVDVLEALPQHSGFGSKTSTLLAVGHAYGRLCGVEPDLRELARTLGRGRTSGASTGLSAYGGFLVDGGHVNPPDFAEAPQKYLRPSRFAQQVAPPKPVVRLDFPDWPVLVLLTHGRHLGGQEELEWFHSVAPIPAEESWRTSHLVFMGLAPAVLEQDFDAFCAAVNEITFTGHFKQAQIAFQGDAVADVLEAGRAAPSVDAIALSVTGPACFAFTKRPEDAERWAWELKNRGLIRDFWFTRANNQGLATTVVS
# WT ForT [3] = molecular target: T1, WT ForT; assay: ITC binding of PRPP to free enzyme, absence of Mg2+; details: no Mg2+, room temperature
# Text: We therefore extended these studies to obtain the binding affinity of APDA to the ForT/PRPP binary complex at room temperature using isothermal calorimetry (ITC) measurements. […] The omission of the catalytically important metal ion thereby avoids any heat generated by catalytic turnover ‘contaminating’ heat released by ligand binding. As a result, these ITC studies report only on the affinity of PRPP and APDA for the free WT enzyme and its PRPP binary complex, respectively.
# S21A ForT variant = molecular target: T3, S21A ForT variant (Streptomyces kaniharaensis, UniProt A0A5S9CYM0, S21A); assay: biochemical
# T3 sequence (A0A5S9CYM0 1-341 S21A): T2 sequence (A0A5S9CYM0 1-341) with S21A
# L24A ForT variant = molecular target: T4, L24A ForT variant (Streptomyces kaniharaensis, UniProt A0A5S9CYM0, L24A); assay: biochemical
# T4 sequence (A0A5S9CYM0 1-341 L24A): T2 sequence (A0A5S9CYM0 1-341) with L24A
# T138A ForT variant = molecular target: T5, T138A ForT variant (Streptomyces kaniharaensis, UniProt A0A5S9CYM0, T138A); assay: biochemical
# T5 sequence (A0A5S9CYM0 1-341 T138A): T2 sequence (A0A5S9CYM0 1-341) with T138A
# T138V ForT variant = molecular target: T6, T138V ForT variant (Streptomyces kaniharaensis, UniProt A0A5S9CYM0, T138V); assay: biochemical
# T6 sequence (A0A5S9CYM0 1-341 T138V): T2 sequence (A0A5S9CYM0 1-341) with T138V
# S174A ForT variant = molecular target: T7, S174A ForT variant (Streptomyces kaniharaensis, UniProt A0A5S9CYM0, S174A); assay: biochemical
# T7 sequence (A0A5S9CYM0 1-341 S174A): T2 sequence (A0A5S9CYM0 1-341) with S174A
# E211A ForT variant = molecular target: T8, E211A ForT variant (Streptomyces kaniharaensis, UniProt A0A5S9CYM0, E211A); assay: biochemical
# T8 sequence (A0A5S9CYM0 1-341 E211A): T2 sequence (A0A5S9CYM0 1-341) with E211A
# K263A ForT variant = molecular target: T9, K263A ForT variant (Streptomyces kaniharaensis, UniProt A0A5S9CYM0, K263A); assay: biochemical
# T9 sequence (A0A5S9CYM0 1-341 K263A): T2 sequence (A0A5S9CYM0 1-341) with K263A
compound,measurement,setting,value
"Nc1cn[nH]c1C(=O)O [APCA, 4-amino-1H-pyrazole-3-carboxylate]",overall yield of coupled products,WT ForT [1],less than 5%
"O=C(O)c1n[nH]c(C(=O)O)c1O [HPDA, 4-hydroxy-1H-pyrazole-3,5-dicarboxylic acid]",substrate for the ForT-catalysed coupling with PRPP,WT ForT [2],is not a substrate
same,Kd,ForT/PRPP complex,37000 nM
O=C(O)c1n[nH]c(C(=O)O)c1I [IPDA],substrate for the ForT-catalysed coupling with PRPP,WT ForT [2],None of these pyrazole-dicarboxylates proved to be substrates
Cc1c(C(=O)O)n[nH]c1C(=O)O [MPDA],substrate for the ForT-catalysed coupling with PRPP,WT ForT [2],None of these pyrazole-dicarboxylates proved to be substrates
O=C(O)c1n[nH]c(C(=O)O)c1[N+](=O)[O-] [NPDA],substrate for the ForT-catalysed coupling with PRPP,WT ForT [2],None of these pyrazole-dicarboxylates proved to be substrates
O=C(O)c1cc(C(=O)O)[nH]n1 [PDA],substrate for the ForT-catalysed coupling with PRPP,WT ForT [2],None of these pyrazole-dicarboxylates proved to be substrates
"O=P(O)(O)OC[C@H]1O[C@H](OP(=O)(O)OP(=O)(O)O)[C@H](O)[C@@H]1O [PRPP, 5′-phosphoribose-1′-pyrophosphate]",Kd,WT ForT [3],900 nM and 930 nM
same,Kd,S21A ForT variant,350 ± 20 nM
same,Kd,L24A ForT variant,1500 ± 100 nM
same,Kd,T138A ForT variant,6700 ± 500 nM
same,Kd,T138V ForT variant,700 ± 400 nM
same,Kd,S174A ForT variant,6000 ± 300 nM
same,Kd,E211A ForT variant,950 ± 20 nM
same,Kd,K263A ForT variant,20000 ± 8000 nM
"Nc1[nH]ncc1C(=O)O [iso-APCA, 3-amino-1H-pyrazole-4-carboxylate]",substrate for the ForT-catalysed coupling with PRPP,WT ForT [2],a new product had been formed
